The values below come from patent publication US8183233B2, “Stable pharmaceutical formulations” (Baxter International Inc., priority 2008, dated 2012).

The conditions of data set [1]: 10 mL concentrate in 250 mL infusion diluent, cited from earlier work.
Data set [2] is described as follows: Predicted shelf-life (t90) of meropenem from degradation kinetics. It is filed as physicochemical. The procedure: The stability and degradation kinetics of meropenem have been studied. Meropenem is predicted to have a shelf-life (t90) of about 0.5 day at 0° C. Extrapolated to −25° C., the predicted shelf-life is less than one month. Meropenem also polymerizes at higher drug concentration by a second-order mechanism. If one requires a meropenem formulation that is ready-to-use, there is value in being able to stabilize these compounds in frozen aqueous media.

The conditions of data set [3]: stored at or below −20° C.; cited from earlier work.

Each structure is given as a SMILES string. Where two headings read alike, the source gives them in different places. Where only a bound is given, the exact number is not on record here.

`CCC(C)CC(C)CCCCCCCCC(=O)N[C@H]1C[C@@H](O)[C@@H](NCCN)NC(=O)[C@@H]2[C@@H](O)CCN2C(=O)[C@H]([C@H](O)CCN)NC(=O)[C@H]([C@H](O)[C@@H](O)c2ccc(O)cc2)NC(=O)[C@@H]2C[C@@H](O)CN2C(=O)[C@H]([C@@H](C)O)NC1=O` (some centres unmarked) [Caspofungin, Caspofungin acetate]: the “Time within which the infusion solution must be used” value was ≤ 24 h in data set [1] (stored at ≦25° C.) and ≤ 48 h in data set [1] (stored refrigerated at 2 to 8° C.). With `C[C@@H](O)[C@H]1C(=O)N2C(C(=O)O)=C(S[C@@H]3CN[C@H](C(=O)N(C)C)C3)[C@H](C)[C@H]12` [Meropenem], the “Predicted shelf-life (t90)” value in data set [2] (at 0° C.) is listed as “about 0.5 day”. The Predicted shelf-life entry in data set [2] (extrapolated to −25° C.) is “less than one”. Regarding `CO/N=C(\C(=O)N[C@@H]1C(=O)N2C(C(=O)O)=C(CSc3nc(=O)c(=O)[nH]n3C)CS[C@H]12)c1csc(N)n1` [ceftriaxone sodium], in data set [3], the “Time for which the frozen agent is stable” value is given as “at least 18 months”.
